The record followed here is patent publication US5430062A, “Stilbene derivatives as anticancer agents” (priority 1993, dated 1995).

The subject of one assay is tubulin. The assay is described as follows: Inhibition of tubulin polymerization (turbidimetry). In kind it is biochemical, bovine.
A further assay deals with MLM melanoma. The assay is described as follows: MTT cytotoxicity assay, MLM. As to conditions: […], read-out: Cytotoxicity ED50, MLM.
In the next assay the test system is A-549 lung carcinoma. In words: MTT cytotoxicity assay, A-549. As to conditions: Homo sapiens, A549, […], read-out: Cytotoxicity ED50, A-549.
The subject of the next assay is MCF-7 breast carcinoma. The assay is described as follows: MTT cytotoxicity assay, MCF-7. To be noted: Homo sapiens, MCF7, […], read-out: Cytotoxicity ED50, MCF-7.
Assay [1] concerns HT-29 colon adenocarcinoma. In words: MTT cytotoxicity assay, HT-29. As to conditions: Homo sapiens, HT-29, […], read-out: Cytotoxicity ED50, HT-29.
Another assay has as its system SKMEL-5 melanoma. In words: MTT cytotoxicity assay, SKMEL-5. To be noted: Homo sapiens, SK-MEL-5, […], read-out: Cytotoxicity ED50, SKMEL-5.
[2] abbreviates: second series (Tables V-VII, IX), read-out: Inhibition of Tubulin Polymerization IC50 (±S.D.).

Like-named read-outs stand apart in the source and are kept apart here. A value given as a limit tells only on which side of the number the result lay.

For the molecule `COc1ccc(/C=C(/C(=O)O)c2cc(OC)c(OC)c(OC)c2)cc1` [compound 23a, (E)-3-(4-Methoxyphenyl)-2-(3,4,5-trimethoxyphenyl)-prop-2-enoic acid], the IC50 in the assay on tubulin (setting [2]) was over 40 µM; with MLM melanoma it was over 25 µM; in the assay on A-549 lung carcinoma, 13.9 µM; with MCF-7 breast carcinoma, 12.8 µM; in assay [1] it was 8.4 µM; with SKMEL-5 melanoma it was 9.1 µM.

For the molecule `CCOc1ccc(/C=C\c2cc(OC)c(OC)c(OC)c2)cc1` [compound 15a, (Z)-1-(4-Ethoxyphenyl)-2-(3,4,5-trimethoxyphenyl)ethene], the IC50 in the assay with tubulin (setting [2]) worked out at 2.7 µM; with MLM melanoma, 0.029 µM; in the assay with A-549 lung carcinoma it was 0.0016 µM; with MCF-7 breast carcinoma, 0.096 µM; in assay [1], 0.0018 µM; in the assay with SKMEL-5 melanoma, 0.0025 µM.

`COc1ccc(CNc2cc(OC)c(OC)c(OC)c2)cc1` [12c, 4-Methoxy-N-(3,4,5-trimethoxyphenyl)benzylamine]: in the assay with tubulin, the “inhibition of tubulin polymerization (in words)” value (“inhibition … (in words)” below) is listed as “lower inhibitory activity”. For the same molecule, the IC50 with tubulin (first series (Table VIII and text), 37° C., 20 min, read-out: Tubulin polymerization IC50 (±S.D.)) is over 50 µM; in the assay on MLM melanoma, over 25 µM; with A-549 lung carcinoma, 0.83 µM; in the assay with MCF-7 breast carcinoma, 0.86 µM; in assay [1], 2.24 µM; in the assay on SKMEL-5 melanoma it was 1.13 µM.

As for `COc1ccc(CC2c3cc(OC)c(OC)c(OC)c3CCN2C)cc1` (stereo not shown) [compound 41, 1-(4'-Methoxybenzyl)-5,6,7-trimethoxy-2-methyl-1,2,3,4-tetrahydroisoquinoline], the IC50 in the assay with tubulin (setting [2]) was over 40 µM; with MLM melanoma, over 25 µM; with A-549 lung carcinoma it was 11.4 µM; in the assay with MCF-7 breast carcinoma, 22.7 µM; in assay [1] it was 9.7 µM; with SKMEL-5 melanoma, 8.8 µM.

Turning to `COc1ccc(Cc2cc(OC)c(OC)c(OC)c2)cc1` [compound 29, 4-Methoxyphenyl-(3,4,5-trimethoxyphenyl)methane], the IC50 came out at 15 µM with tubulin (setting [2]); 0.13 µM in the assay with MLM melanoma; 0.15 µM in the assay on A-549 lung carcinoma; 0.019 µM in the assay on MCF-7 breast carcinoma; 0.013 µM in assay [1]; 0.012 µM with SKMEL-5 melanoma.

Regarding `COc1ccc(/C(=C\c2cc(OC)c(OC)c(OC)c2)C(=O)O)cc1` [23c, (E)-2-(4-Methoxyphenyl)-3-(3,4,5-trimethoxyphenyl)-prop-2-enoic acid], the IC50 with tubulin (setting [2]) is over 40 µM; in the assay on MLM melanoma it was over 25 µM; in the assay on A-549 lung carcinoma it was 5.2 µM; in the assay with MCF-7 breast carcinoma it was 1.9 µM; in assay [1], 5.9 µM; in the assay with SKMEL-5 melanoma it was 2.3 µM.

As for `COc1cc(CCc2ccc(C)cc2)cc(OC)c1OC` [17d, 1-(4-Methylphenyl)-2-(3,4,5-trimethoxyphenyl)ethane], the IC50 stood at 21 µM with tubulin (setting [2]); 1.4 µM with MLM melanoma; 0.18 µM in the assay with A-549 lung carcinoma; 0.22 µM in the assay on MCF-7 breast carcinoma; 0.1 µM in assay [1]; 0.27 µM in the assay on SKMEL-5 melanoma.

Consider `COc1ccc2c(ccc3cc(OC)c(OC)c(OC)c32)c1` [32c, 2,3,4,7-Tetramethoxyphenanthrene], for which the IC50 in the assay with tubulin (setting [2]) is over 40 µM; in the assay on MLM melanoma, over 25 µM; in the assay with A-549 lung carcinoma it was over 25 µM; with MCF-7 breast carcinoma, over 25 µM; in assay [1], over 25 µM; with SKMEL-5 melanoma, over 25 µM.

As for `COc1ccc(/C=C\c2ccc(OC)c(OC)c2OC)cc1` [5d, (Z)-1-(4-Methoxyphenyl)-2-(2,3,4-trimethoxy-phenyl)ethene], the “inhibition of tubulin polymerization (class)” value in the assay on tubulin was “inactive”. Besides, the IC50 in the assay with MLM melanoma was found to be 10.9 µM; in the assay with A-549 lung carcinoma it was 0.97 µM; in the assay with MCF-7 breast carcinoma, 0.23 µM; in assay [1], 1 µM; in the assay with SKMEL-5 melanoma it was 1.1 µM.

Consider `COc1cccc(/C=C(/C(=O)O)c2cc(OC)c(OC)c(OC)c2)c1` [compound 23b, (E)-3-(3-Methoxyphenyl)-2-(3,4,5-trimethoxyphenyl)-prop-2-enoic acid], for which the IC50 with tubulin (setting [2]) was over 40 µM; in the assay on MLM melanoma, over 25 µM; in the assay with A-549 lung carcinoma, 0.025 µM; in the assay on MCF-7 breast carcinoma, over 25 µM; in assay [1], 0.12 µM; with SKMEL-5 melanoma, 0.05 µM.

For `COc1ccc(Cc2c3cc(OC)c(OC)c(OC)c3cc[n+]2C)cc1` [compound 37, 1-(4'-Methoxybenzyl)-5,6,7-trimethoxyisoquinoline Methiodide], the IC50 in the assay with tubulin (setting [2]) was over 40 µM; in the assay on MLM melanoma, over 25 µM; with A-549 lung carcinoma, 19.5 µM; with MCF-7 breast carcinoma, over 25 µM; in assay [1], 20.5 µM; with SKMEL-5 melanoma, 2.1 µM.

Turning to `CCc1ccc(CCc2cc(OC)c(OC)c(OC)c2)cc1` [17e, 1-(4-Ethylphenyl)-2-(3,4,5-trimethoxyphenyl)ethane], the IC50 turned out to be 18 µM with tubulin (setting [2]); 2.7 µM in the assay on MLM melanoma; 0.088 µM in the assay on A-549 lung carcinoma; 0.16 µM with MCF-7 breast carcinoma; 0.016 µM in assay [1]; 0.047 µM in the assay with SKMEL-5 melanoma.

For the molecule `COc1cc2ccc3c(OC)cccc3c2c(OC)c1OC` [32d, 2,3,4,8-Tetramethoxyphenanthrene], the IC50 in the assay on tubulin (setting [2]) was over 40 µM; in the assay on MLM melanoma, over 25 µM; with A-549 lung carcinoma, over 25 µM; with MCF-7 breast carcinoma, 14.6 µM; in assay [1] it was 9.3 µM; in the assay on SKMEL-5 melanoma, 12 µM.

Take `CCCOc1ccc(/C=C\c2cc(OC)c(OC)c(OC)c2)cc1` [compound 15b, (Z)-1-(4-n-Propoxyphenyl)-2-(3,4,5-trimethoxyphenyl)-thene]: the IC50 in the assay on tubulin (setting [2]) came out at 6 µM; with MLM melanoma, 0.065 µM; in the assay on A-549 lung carcinoma it was 0.039 µM; in the assay on MCF-7 breast carcinoma, 0.66 µM; in assay [1], 0.028 µM; in the assay with SKMEL-5 melanoma it was 0.014 µM.

Regarding `COc1ccc(C(=O)c2nccc3c(OC)c(OC)c(OC)cc23)cc1` [compound 39, 1-(4'-Methoxybenzoyl)-5,6,7-trimethoxyisoquinoline], the IC50 in the assay with tubulin (setting [2]) was over 40 µM; in the assay on MLM melanoma it was over 25 µM; in the assay with A-549 lung carcinoma, over 25 µM; in the assay with MCF-7 breast carcinoma, over 25 µM; in assay [1], over 25 µM; in the assay on SKMEL-5 melanoma, over 25 µM.

Take `COc1ccc(C(=O)c2c3cc(OC)c(OC)c(OC)c3cc[n+]2C)cc1` [compound 40, 1-(4'-Methoxybenzoyl)-5,6,7-trimethoxyisoquinoline Methiodide]: the IC50 with tubulin (setting [2]) is over 40 µM; in the assay with MLM melanoma, over 25 µM; with A-549 lung carcinoma, over 25 µM; in the assay on MCF-7 breast carcinoma, over 25 µM; in assay [1], over 25 µM; in the assay with SKMEL-5 melanoma, over 25 µM.

For the molecule `COc1cc(CCc2ccc(N)cc2)cc(OC)c1OC` [compound 8z, 1-(4-Aminophenyl)-2-(3,4,5-trimethoxyphenyl)ethane], the “inhibition … (in words)” value in the assay with tubulin is on record as “lower activity”. In addition, the IC50 in the assay with MLM melanoma is over 25 µM; in the assay with A-549 lung carcinoma it was 12.2 µM; in the assay on MCF-7 breast carcinoma it was 11.9 µM; in assay [1], 24.6 µM; in the assay with SKMEL-5 melanoma it was 12.7 µM.

On to `COc1ccc2c(c1)CN1CCc3c(cc(OC)c(OC)c3OC)C1C2` (stereo not shown) [compound 48, 5,8,13,13a-Tetrahedro-2,3,4,10-tetramethoxy-6H-dibenzo-(a,g)quinolizine], for which the IC50 in the assay with tubulin (setting [2]) was over 40 µM; in the assay on MLM melanoma, over 25 µM; in the assay on A-549 lung carcinoma, over 25 µM; in the assay with MCF-7 breast carcinoma, over 25 µM; in assay [1], over 25 µM; in the assay on SKMEL-5 melanoma it was over 25 µM.

`COc1ccc(/C=C\c2cc(OC)c(O[Si](C)(C)C(C)(C)C)c(OC)c2)cc1` [15k, (Z)-1-[4-{(t-Butyldimethylsilyl)-oxy}-3,5-(dimethoxy)-phenyl]-2-(4-methoxyphenyl)ethene]: the IC50 with tubulin (setting [2]) was over 40 µM; in the assay with MLM melanoma, over 25 µM; in the assay on A-549 lung carcinoma, over 25 µM; in the assay with MCF-7 breast carcinoma it was over 25 µM; in assay [1], 9 µM; in the assay on SKMEL-5 melanoma, over 25 µM.

As for `COc1ccc(C2Cc3cc(OC)c(OC)c(OC)c3C2)cc1` (stereo not shown) [compound 35, 2-(4-Methoxyphenyl)-4,5,6-trimethoxyindane], the IC50 is over 40 µM in the assay on tubulin (setting [2]); over 25 µM in the assay with MLM melanoma; over 25 µM with A-549 lung carcinoma; over 25 µM in the assay with MCF-7 breast carcinoma; 12.8 µM in assay [1]; 19.5 µM in the assay with SKMEL-5 melanoma.

On to `COc1ccc2ccc3cc(OC)c(OC)c(OC)c3c2c1` [32b, 2,3,4,6-Tetramethoxyphenanthrene], for which the IC50 was over 40 µM in the assay on tubulin (setting [2]); over 25 µM with MLM melanoma; over 25 µM in the assay with A-549 lung carcinoma; over 25 µM in the assay with MCF-7 breast carcinoma; 1.1 µM in assay [1]; 12.5 µM in the assay with SKMEL-5 melanoma.

For the molecule `COc1ccc(/C=C\c2cc(OC)c(OC(C)=O)c(OC)c2)cc1` [15l, (Z)-1-(4-Acetoxy-3,5-dimethoxyphenyl)-2-(4-methoxyphenyl)ethene], the IC50 was 24 µM with tubulin (setting [2]); over 25 µM in the assay with MLM melanoma; 21.5 µM in the assay on A-549 lung carcinoma; over 25 µM in the assay with MCF-7 breast carcinoma; 8.7 µM in assay [1]; 0.6 µM with SKMEL-5 melanoma.

For `COc1ccc(CC2NCCc3c2cc(OC)c(OC)c3OC)cc1` (stereo not shown) [compound 38, 1-(4'-Methoxybenzyl)-5,6,7-trimethoxy-1,2,3,4-tetrahydroisoquinoline], the IC50 was over 40 µM with tubulin (setting [2]); over 25 µM with MLM melanoma; 19.3 µM in the assay with A-549 lung carcinoma; over 25 µM in the assay on MCF-7 breast carcinoma; 20.2 µM in assay [1]; over 25 µM with SKMEL-5 melanoma.

Consider `COc1ccc(NC(=O)c2cc(OC)cc(OC)c2)cc1` [11d], for which the “inhibition … (in words)” value in the assay with tubulin is given as “lower inhibitory activity”. Also, the IC50 in the assay with MLM melanoma was over 25 µM; in the assay with A-549 lung carcinoma it was 9.02 µM; in the assay with MCF-7 breast carcinoma it was 5.47 µM; in assay [1], 14.5 µM; with SKMEL-5 melanoma, 11.9 µM.
